The values below come from patent US9126056B2, “Method of promoting hair growth” (ENERGENESIS BIOMEDICAL CO., LTD., priority 2010, dated 2015).

Each structure is given as a SMILES string.

For the experiment, the system named is human dermal papilla cells. The experiment in a line: Human dermal papilla cell proliferation test. In kind it is cell-based. As to conditions: 0.002% in culture media; cell count at 12-60 hour; FIG. 1. As to the method: The promotion of cell proliferation by adenine was evaluated using human dermal papilla cells, compared with adenosine, and minoxidil under the following conditions, the results are shown in FIG. 1.
Determination of the proliferation of human dermal papilla cells in the culture media containing adenine, adenosine, and minoxidil. Supplements: 0.002% of adenine, adenosine, minoxidil.
• (1) Prepare 0.002% adenine, adenosine, minoxidil containing testing media using the hair follicle dermal papilla cell media (cat. No. 611-500, Cell applications, Inc). • (2) Seed the isolated human dermal papilla cells in 96-well culture plate with a density of 5,000 cells per well. Add 0.1 mL prepared culture media into individual well. • (3) At 12, 24, 36, 48 and 60 hour after cell seeding, visually count the total cell number using hemacytometer. • (4) Evaluate the result.

For the molecule `Nc1ncnc2nc[nH]c12` [adenine], the “proliferation of human dermal papilla cells (in words)” value is “promotes the proliferation”.
